According to patent US5358945A, “Pyrimidine compound and pharmaceutically acceptable salts thereof” (Mitsui Petrochemical Industries, Ltd., priority 1990, dated 1994):
Counter-ions that a name gives are not always drawn.

Columns and labels:
Mouse neuro 2a cells = experiment: Neurite outgrowth of mouse neuroblastoma neuro 2a cells (Table 7); format: cell-based; conditions: mean ± S.D.
Method in brief: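 Neuro-2a cells seeded at 1,000 cells/well in DMEM with 10% FCS, cultured one day at 37 °C, 5% CO2, then 24 h with compound (up to 6 concentrations, triplicate). Fixed with glutaraldehyde, methylene blue stained; percentage of cells bearing neurites ≥2× cell long diameter counted microscopically (>200 cells).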

[1] = test system: Mouse neuroblastoma cells NS-20Y; experiment: Neurite appearance in mouse neuroblastoma NS-20Y cells (Table 8); format: cell-based;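 further: cells grown in polyornithine-coated dishes, with timing counted from the start of culture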
crushed sciatic nerves = experiment: Recovery of the interdigital distance in rats with crushed sciatic nerves (Table 9); format: in vivo, rat (male Wistar)
Experimental: Rats whose sciatic nerves were crushed were prepared as a model for peripheral nervous disorders and the effects of the compounds of this invention on it were tested. It was made clear that the compounds of the present invention have an effect of promoting recovery of the interdigit distance and the weight of the soleus muscle to normal values.
Curative effect on rats with crushed sciatic nerves: The curing effect of the compound of the invention was tested on rats having crushed sciatic nerves as a model of peripheral nervous disorder using (1) a change in the action of the hind paw with the crushed sciatic nerves and (2) a change in the weight of the muscle as an index of the course of degeneration and regeneration of peripheral nerves.
In the experiment, male Wistar rats (6 weeks old), 10-15 per group, were used. The sciatic nerves were crushed by a method similar to the method of Yamatsu et al. (see Kiyomi Yamatsu, Takenori Kaneko, Akifumi Kitahara and Isao Ohkawa, Journal of Japanese Pharmacological Society, 72, 259-268 (1976) and the method of Hasegawa et al. (see Kazuo Hasegawa, Naoji Mikuni and Yutaka Sakai, Journal of Japanese Pharmacological Society, 7 4 721-734 (1978). Specifically, under anesthesia with pentobarbital (40 mg/kg, i.p.), the left side sciatic nerve was exposed at the femur and a given site was crushed with hemostat (2ram in width) for 30 seconds. After crushing, the operated site was immediately sitched. Vincristine, known to delay the regeneration of peripheral nerves, was administered intraperitoneally at 100 μg/kg per week.
Test compounds selected from the compounds of the invention were administered intraperitoneally or orally once a day from the day of operation to the 30th day. A group to which 0.9% saline was administered was used as control.
According to the method of Hasegawa [Hasegawa, K., Experientia, 34, 750-751 ( 1978)], the distance between the first and fifth digits of the hind paw was measured and the ratio of a crushed-side distance to a normal-side distance was calculated.
*Compound 274 is orally administered to a group of rats with the crushed

mouse = experiment: Acute toxicity in mouse (Table 10); format: in vivo
Experimental: The acute toxicity of the compounds of the invention was examined by the following method.
Male ddy-strain 5-week old mice, 4-6 per group, were used as experimental animals. Each of the compounds was dissolved or suspended in saline and administered perorally (p.o.) or intraperitoneally (i.p.), and the toxicity of the compound was assessed 24 hours after the administration.

With `O=C1CCCN1c1ccnc(N2CCCCC2)n1` [Compound 274, 4-(2-oxopyrrolidino)-2-(4-piperidino) pyrimidine hydrochloride] the “Ratio of the number of cells having neurites with a length of at least two times as large as the diameter of cells to the total number of cells” value (Mouse neuro 2a cells; 0.3 mM, hydrochloride) was 25.8 ± 3.5%, the “The number of cells in which neurites appeared/Total number of cells” value ([1]; 24 hour, 0.1 mM, hydrochloride) was 4/50 and the “The number of cells in which neurites appeared/Total number of cells” value ([1]; 24 hour, 0.2 mM, hydrochloride) was 6/50. The “The number of cells in which neurites appeared/Total number of cells” value ([1]; 48 hour, 0.2 mM, hydrochloride) was 4/50, the “The number of cells in which neurites appeared/Total number of cells” value ([1]; 48 hour, 0.5 mM, hydrochloride) was 6/50 and the “Rate of recovery of the interdigital distance” value (shortened to “Rate”) (crushed sciatic nerves; 7.5 mg/kg orally, 7 days after crush) was 42.6 ± 6.8%. The “Rate” value (crushed sciatic nerves; 7.5 mg/kg orally, 14 days after crush) was 37.6%, the “Rate” value (crushed sciatic nerves; 7.5 mg/kg orally, 16 days after crush) was 38.4% and the “Rate” value (crushed sciatic nerves; 7.5 mg/kg orally, 18 days after crush) was 40.9 ± 6.2%. For the same compound, the “Rate” value (crushed sciatic nerves; 7.5 mg/kg orally, 20 days after crush) was 45.6 ± 14.0%, the “Rate” value (crushed sciatic nerves; 7.5 mg/kg orally, 22 days after crush) was 46.8 ± 13.2% and the “Rate” value (crushed sciatic nerves; 7.5 mg/kg orally, 24 days after crush) was 48.2%. The “Rate” value (crushed sciatic nerves; 7.5 mg/kg orally, 26 days after crush) was 54.8%, the “Rate” value (crushed sciatic nerves; 7.5 mg/kg orally, 28 days after crush) was 66.9 ± 19.6% and the “Rate” value (crushed sciatic nerves; 7.5 mg/kg orally, 30 days after crush) was 64.0 ± 21.2%. For the same compound, the “Rate” value (crushed sciatic nerves; 15 mg/kg orally, 7 days after crush) was 39.8 ± 5.2%, the “Rate” value (crushed sciatic nerves; 15 mg/kg orally, 14 days after crush) was 38.2% and the “Rate” value (crushed sciatic nerves; 15 mg/kg orally, 16 days after crush) was 39.4%. For the same compound, the “Rate” value (crushed sciatic nerves; 15 mg/kg orally, 18 days after crush) was 40.5 ± 4.2%, the “Rate” value (crushed sciatic nerves; 15 mg/kg orally, 20 days after crush) was 46.7 ± 7.3% and the “Rate” value (crushed sciatic nerves; 15 mg/kg orally, 22 days after crush) was 50.0 ± 10.0%. The “Rate” value (crushed sciatic nerves; 15 mg/kg orally, 24 days after crush) was 56.8%, the “Rate” value (crushed sciatic nerves; 15 mg/kg orally, 26 days after crush) was 62.2% and the “Rate” value (crushed sciatic nerves; 15 mg/kg orally, 28 days after crush) was 65.5 ± 19.8%. For the same compound, the “Rate” value (crushed sciatic nerves; 15 mg/kg orally, 30 days after crush) was 70.1 ± 21.4%, the “Rate” value (crushed sciatic nerves; 30 mg/kg orally, 7 days after crush) was 38.8 ± 4.4% and the “Rate” value (crushed sciatic nerves; 30 mg/kg orally, 14 days after crush) was 39.2%. For the same compound, the “Rate” value (crushed sciatic nerves; 30 mg/kg orally, 16 days after crush) was 38.3%, the “Rate” value (crushed sciatic nerves; 30 mg/kg orally, 18 days after crush) was 40.8 ± 4.5% and the “Rate” value (crushed sciatic nerves; 30 mg/kg orally, 20 days after crush) was 43.8 ± 6.7%. The “Rate” value (crushed sciatic nerves; 30 mg/kg orally, 22 days after crush) was 47.8 ± 11.5%, the “Rate” value (crushed sciatic nerves; 30 mg/kg orally, 24 days after crush) was 57.0% and the “Rate” value (crushed sciatic nerves; 30 mg/kg orally, 26 days after crush) was 60.9%. The “Rate” value (crushed sciatic nerves; 30 mg/kg orally, 30 days after crush) was 73.6 ± 20.0% and the “Estimated LD50” value (mouse; in vivo, ip) was 250 to 500 mg/kg.
For `CCCCN(CCCC)c1nccc(N2CCCC2=O)n1` [Compound 440], the “Ratio of the number of cells having neurites with a length of at least two times as large as the diameter of cells to the total number of cells” value (Mouse neuro 2a cells; 0.1 mM) was 4.3 ± 0.8%, the “The number of cells in which neurites appeared/Total number of cells” value ([1]; 24 hour, 0.1 mM) was 3/50 and the “The number of cells in which neurites appeared/Total number of cells” value ([1]; 24 hour, 0.5 mM) was 4/50. For the same compound, the “The number of cells in which neurites appeared/Total number of cells” value ([1]; 48 hour, 0.1 mM) was 4/50 and the “Estimated LD50” value (mouse; i.p., 24 hours after administration) was over 500 mg/kg.
